Measurements taken from ChEMBL document CHEMBL4339215, “Inhibition of PCSK9D374Y/LDLR Protein-Protein Interaction by Computationally Designed T9 Lupin Peptide” (ACS Med Chem Lett, 2019).
pIC50: −log10 of the molar value. Activity calls are given as the source filed them. No cut-off for these calls is given here.

Assays:
[1] = system: PCSK9/LDLR (Homo sapiens), Q8NBP7+P01130 [D374Y]; assay: Binding affinity to C-terminal His tagged purified recombinant PCSK9 D374Y mutant (unknown origin) expressed in HEK293 cells assessed as reduction in PCSK9/LDLR protein-protein interaction at 100 uM by chemiluminescent assay
[2] = system: PCSK9/LDLR (Homo sapiens), Q8NBP7+P01130 [D374Y]; assay: (§1) Binding affinity to C-terminal His tagged purified recombinant PCSK9 D374Y mutant (unknown origin) expressed in HEK293 cells assessed as dose dependent reduction in PCSK9/LDLR protein-protein interaction at 0.1 uM to 1 mM uM by chemiluminescent assay
PCSK9/LDLR = PCSK9/LDLR (Homo sapiens, UniProt Q8NBP7, D374Y); assay: as §1
Chain of PCSK9/LDLR (Q8NBP7 whole entry D374Y, looked up): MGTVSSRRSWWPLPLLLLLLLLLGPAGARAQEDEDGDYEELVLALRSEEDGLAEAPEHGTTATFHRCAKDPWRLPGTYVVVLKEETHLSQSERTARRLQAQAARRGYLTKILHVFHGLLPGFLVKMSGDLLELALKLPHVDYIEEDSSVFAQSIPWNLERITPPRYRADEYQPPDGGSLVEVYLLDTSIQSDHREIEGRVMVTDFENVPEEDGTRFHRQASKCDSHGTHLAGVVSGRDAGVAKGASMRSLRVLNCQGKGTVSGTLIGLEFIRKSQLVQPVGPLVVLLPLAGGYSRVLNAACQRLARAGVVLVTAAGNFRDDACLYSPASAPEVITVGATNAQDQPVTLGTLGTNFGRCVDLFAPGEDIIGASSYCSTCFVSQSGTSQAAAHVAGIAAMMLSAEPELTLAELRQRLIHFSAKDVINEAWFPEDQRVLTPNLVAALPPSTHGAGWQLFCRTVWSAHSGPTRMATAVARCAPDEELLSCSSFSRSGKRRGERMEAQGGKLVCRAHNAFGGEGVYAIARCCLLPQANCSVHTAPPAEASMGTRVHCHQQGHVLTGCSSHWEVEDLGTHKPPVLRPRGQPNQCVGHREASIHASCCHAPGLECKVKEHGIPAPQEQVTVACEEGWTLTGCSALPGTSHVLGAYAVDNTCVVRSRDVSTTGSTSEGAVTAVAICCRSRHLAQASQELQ

[3] = system: PCSK9/LDLR (Homo sapiens), Q8NBP7+P01130 [D374Y]; assay: (§2) Inhibition of C-terminal His tagged purified recombinant PCSK9 D374Y mutant (unknown origin) and LDLR protein-protein interaction expressed in human HepG2 cells assessed as LDL-C uptake level at 10 uM incubated for 2 hrs by fluorescent LDL uptake cell-based assay (42.1 +/- 1.6%); set-up: scale not given: the % may be the effect or the level left
[4] = system: PCSK9/LDLR (Homo sapiens), Q8NBP7+P01130 [D374Y]; assay: as §2, with “Potency index, ratio of T9 to test compound for inhibition” for “Inhibition”, “assay” for “assay (42.1 +/- 1.6%)”
[5] = system: PCSK9/LDLR (Homo sapiens), Q8NBP7+P01130 [D374Y]; assay: Inhibition of C-terminal His tagged purified recombinant PCSK9 D374Y mutant (unknown origin) and LDLR protein-protein interaction expressed in human HepG2 cells assessed as LDLR protein expression level at cell surface at 10 uM incubated for 2 hrs by in-cell western analysis (reference value: 39.6 +/- 0.7%); format: cell-based; set-up: scale not given: the % may be the effect or the level left
[6] = system: PCSK9/LDLR (Homo sapiens), Q8NBP7+P01130 [D374Y]; assay: Inhibition of C-terminal His tagged purified recombinant PCSK9 D374Y mutant (unknown origin) and LDLR protein-protein interaction expressed in human HepG2 cells assessed as LDLR protein expression level at cell surface at 10 uM incubated for 2 hrs by in-cell western analysis relative to T9 peptide; format: cell-based; set-up: scale not given: the % may be the effect or the level left

Row | inhibition [1] [%] | inhibition [2] | pIC50 (PCSK9/LDLR) | Activity [3] [%] | Ratio [4] | Activity [5] [%] | Activity [6] [%] | Molecule
1 | 31.3 | inactive | – | – | – | – | – | CC[C@H](C)[C@H](NC(=O)[C@@H](NC(=O)CNC(=O)[C@H](CCC(=O)O)NC(=O)[C@H](C)NC(=O)[C@H](CCC(N)=O)NC(=O)[C@H](Cc1cnc[nH]1)NC(=O)[C@H](CO)NC(=O)[C@H](CCC(N)=O)NC(=O)[C@H](CCC(=O)O)NC(=O)[C@H](CCC(N)=O)NC(=O)CN)C(C)C)C(=O)N[C@H](C(=O)N[C@@H](CCCNC(=N)N)C(=O)O)C(C)C
2 | – | Dose-dependent effect | 3.83 | 102 | 35 | 83.8 | 12.7 | H-GQRQWKQAEGVMVR-OH
